US20240425518A1, “N-MACROCYCLIC AMIDE COMPOUNDS, PREPARATION METHODS THEREOF AND APPLICATIONS THEREOF AS MEDICAMENTS” (Chengdu FANXI Biopharma Co., Ltd., priority 2023, published 2024)

What was measured:
[1] = molecular target: T1, Flt3 (D835Y) (h) (Homo sapiens, UniProt P36888, D835Y); assay: Radioisotope labeling kinase assay (Eurofins), Flt3 (D835Y); assay type: biochemical; conditions: for activity at 1 µM: 1 μM compound, read-out: Inhibitory activity per unit concentration/Activity % Flt3 (D835Y) (h)
T1 construct: purchased Eurofins
T1 sequence (P36888 27-993 D835Y): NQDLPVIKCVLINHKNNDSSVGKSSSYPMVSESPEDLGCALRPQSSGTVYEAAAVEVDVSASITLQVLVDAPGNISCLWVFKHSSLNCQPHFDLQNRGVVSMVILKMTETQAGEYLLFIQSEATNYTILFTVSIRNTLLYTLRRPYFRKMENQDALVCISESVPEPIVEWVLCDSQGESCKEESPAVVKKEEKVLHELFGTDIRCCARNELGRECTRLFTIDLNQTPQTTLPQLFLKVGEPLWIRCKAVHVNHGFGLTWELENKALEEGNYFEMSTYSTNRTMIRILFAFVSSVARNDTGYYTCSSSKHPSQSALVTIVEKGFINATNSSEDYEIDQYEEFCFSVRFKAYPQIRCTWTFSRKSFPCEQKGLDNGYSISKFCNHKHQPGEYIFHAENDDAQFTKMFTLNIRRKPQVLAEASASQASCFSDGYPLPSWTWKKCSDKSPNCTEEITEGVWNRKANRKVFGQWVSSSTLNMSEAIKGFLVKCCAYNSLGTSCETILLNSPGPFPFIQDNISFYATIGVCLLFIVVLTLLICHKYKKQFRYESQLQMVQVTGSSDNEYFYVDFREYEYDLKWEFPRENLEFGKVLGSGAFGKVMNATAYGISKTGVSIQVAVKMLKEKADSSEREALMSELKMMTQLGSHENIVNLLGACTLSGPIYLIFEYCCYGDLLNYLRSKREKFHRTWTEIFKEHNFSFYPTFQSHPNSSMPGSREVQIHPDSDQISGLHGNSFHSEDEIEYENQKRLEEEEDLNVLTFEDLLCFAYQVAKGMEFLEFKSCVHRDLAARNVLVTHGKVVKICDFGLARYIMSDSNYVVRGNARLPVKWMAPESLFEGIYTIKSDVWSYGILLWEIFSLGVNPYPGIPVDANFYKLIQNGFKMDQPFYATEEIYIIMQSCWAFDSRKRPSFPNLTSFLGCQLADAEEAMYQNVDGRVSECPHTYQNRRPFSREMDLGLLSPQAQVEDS
Experimental: (§1) An activity to a human recombinant protein kinase of a series of compounds was determined by a radioisotope labeling method, which was provided by Eurofins Company. A compound to be detected was mixed with a corresponding protein kinase buffer (20 mM propyl sulfonate (MOPS, […].), 1 mM EDTA, 0.10 β-mercaptoethanol, 0.010 Brij-35, […], and 1 mg/mL BSA), the mixture was added into a reaction system (100 μM reaction substrate […], 8 mM MOPS with a pH value of 7.0, 10 mM MgAcetate, 0.2 mM EDTA, and a certain concentration of γ-^33P-ATP). After adding an MgATP composite solution, the reaction was started at room temperature for 40 minutes, and the reaction was terminated by adding 5 μl of […] solution. Then, 10 μl of reaction solution was dropwise added onto a filter and washed with 75 mM phosphoric acid solution for three times, 5 minutes each time, then washed with methanol once again, and dried and subjected to scintillation counting.

[2] = molecular target: T2, JAK2 (h) (Homo sapiens, UniProt O60674); assay: Radioisotope labeling kinase assay (Eurofins), JAK2; assay type: biochemical
T2 construct: purchased Eurofins
Experimental: as §1

[3] = molecular target: T3, JAK1 (h) (Homo sapiens, UniProt P23458); assay: Radioisotope labeling kinase assay (Eurofins), JAK1; assay type: biochemical
T3 construct: purchased Eurofins
Experimental: as §1

[4] = molecular target: T4, Ab1 (h) (Homo sapiens, UniProt P00519); assay: Radioisotope labeling kinase assay (Eurofins), Ab1; assay type: biochemical; conditions: for activity at 1 µM: 1 μM compound, read-out: Inhibitory activity per unit concentration/Activity % Ab1 (h)
T4 construct: purchased Eurofins
Experimental: as §1

[5] = molecular target: T5, Ret (h) (Homo sapiens, UniProt P07949); assay: Radioisotope labeling kinase assay (Eurofins), Ret; assay type: biochemical
T5 construct: purchased Eurofins
Experimental: as §1

[6] = molecular target: T6, BTK (h) (Homo sapiens, UniProt Q06187); assay: Radioisotope labeling kinase assay (Eurofins), BTK; assay type: biochemical; conditions: for activity at 1 µM: 1 μM compound, read-out: Inhibitory activity per unit concentration/Activity % BTK (h)
T6 construct: purchased Eurofins
Experimental: as §1

[7] = molecular target: T7, EGFR (T790M, L858R) (h) (Homo sapiens, UniProt P00533, L858R/T790M); assay: Radioisotope labeling kinase assay (Eurofins), EGFR (T790M, L858R); assay type: biochemical
T7 construct: purchased Eurofins
Experimental: as §1

[8] = molecular target: T8, KDR (h) (Homo sapiens, UniProt P35968); assay: Radioisotope labeling kinase assay (Eurofins), KDR; assay type: biochemical
T8 construct: purchased Eurofins
Experimental: as §1

[9] = molecular target: T9, TrkA (h) (Homo sapiens, UniProt P04629); assay: Radioisotope labeling kinase assay (Eurofins), TrkA; assay type: biochemical
T9 construct: purchased Eurofins
Experimental: as §1

[10] = test system: HT1080 Human fibrosarcoma cells; assay: MTT cell proliferation inhibition, HT1080; assay type: cell-based; conditions: HT-1080, HT1080, 72 hours
Experimental: (§2) Human cancer cells were purchased from ATCC. The cells were cultured in a culture medium according to the work instruction of ATCC. A dose-response curve was drawn by XL-fitting to determine an IC50 value of a compound. […] Cell proliferation inhibition could be detected by a MTT method (3-(4,5-Dimethylthiazol-2-yl)-2,5-diphenyltetrazolium bromide, and MTT; and 3-(4,5-dimethyl thiazole-2)-2,5-diphenyltertazolium bromide, and thiazolyl blue).
(§3) The cells were cultured in a culture dish first, and the cells in a logarithmic growth phase were inoculated into a 96-well plate (3,000 to 5,000 adherent cells/well, 10,000 to 30,000 suspended cells/well) according to a specific number, with 100 microliters per well, and then cultured in an incubator of 5% CO2 and 37° C. […] An absorbance of a general control group should be a normal value between 0.8 and 1.2. After obtaining absorbance data, a change curve of an inhibition rate was fitted by GraphPad Prism6.03 software and an IC50 value was calculated.
(§4) Calculation of drug inhibition rate: relative cell proliferation inhibition rate=[(control group A570−experimental group A570)/control group […], wherein A570 represented the absorbance at 570 nm.

[11] = test system: TT Human medullary thyroid cancer; assay: MTT cell proliferation inhibition, TT; assay type: cell-based; conditions: 72 hours
Experimental: as §2, §3, §4

[12] = test system: U266 Human myeloma cells; assay: MTT cell proliferation inhibition, U266; assay type: cell-based; conditions: U-266, U266, 72 hours
Experimental: as §2, §3, §4

[13] = test system: HL-60 Human acute myelogenous leukemia; assay: MTT cell proliferation inhibition, HL-60; assay type: cell-based; conditions: HL-60, 72 hours
Experimental: as §2, §3, §4

T3 sequence (P23458 whole entry): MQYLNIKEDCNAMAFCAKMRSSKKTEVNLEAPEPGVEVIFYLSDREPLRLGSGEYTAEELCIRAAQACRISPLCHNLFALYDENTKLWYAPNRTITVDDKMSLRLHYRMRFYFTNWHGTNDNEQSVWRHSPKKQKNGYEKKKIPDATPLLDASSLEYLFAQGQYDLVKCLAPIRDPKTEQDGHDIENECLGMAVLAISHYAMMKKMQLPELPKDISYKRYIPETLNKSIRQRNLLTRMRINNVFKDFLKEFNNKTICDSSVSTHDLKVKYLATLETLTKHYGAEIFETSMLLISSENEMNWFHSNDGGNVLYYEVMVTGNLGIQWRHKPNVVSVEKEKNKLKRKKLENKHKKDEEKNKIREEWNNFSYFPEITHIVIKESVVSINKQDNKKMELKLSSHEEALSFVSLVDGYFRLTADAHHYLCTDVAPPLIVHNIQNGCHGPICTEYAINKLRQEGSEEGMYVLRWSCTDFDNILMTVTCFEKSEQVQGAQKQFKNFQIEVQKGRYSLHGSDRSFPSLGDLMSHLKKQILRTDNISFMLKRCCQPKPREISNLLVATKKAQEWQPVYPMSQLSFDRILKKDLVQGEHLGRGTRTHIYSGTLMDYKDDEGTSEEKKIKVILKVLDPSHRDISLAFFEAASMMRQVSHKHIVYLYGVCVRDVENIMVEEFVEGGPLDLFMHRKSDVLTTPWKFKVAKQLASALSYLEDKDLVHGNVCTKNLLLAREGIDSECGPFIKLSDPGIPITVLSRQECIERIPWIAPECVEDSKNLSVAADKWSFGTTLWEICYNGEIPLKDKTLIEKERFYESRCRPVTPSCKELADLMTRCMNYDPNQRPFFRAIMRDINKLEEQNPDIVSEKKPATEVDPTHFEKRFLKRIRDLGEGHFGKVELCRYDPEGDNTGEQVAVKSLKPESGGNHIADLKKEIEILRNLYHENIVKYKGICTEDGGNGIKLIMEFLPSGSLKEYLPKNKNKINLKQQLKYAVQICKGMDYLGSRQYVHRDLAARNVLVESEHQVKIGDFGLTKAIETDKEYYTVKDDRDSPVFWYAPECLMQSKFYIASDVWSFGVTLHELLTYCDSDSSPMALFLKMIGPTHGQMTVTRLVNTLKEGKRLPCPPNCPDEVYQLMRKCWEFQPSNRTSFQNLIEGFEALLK
T5 sequence (P07949 29-1114): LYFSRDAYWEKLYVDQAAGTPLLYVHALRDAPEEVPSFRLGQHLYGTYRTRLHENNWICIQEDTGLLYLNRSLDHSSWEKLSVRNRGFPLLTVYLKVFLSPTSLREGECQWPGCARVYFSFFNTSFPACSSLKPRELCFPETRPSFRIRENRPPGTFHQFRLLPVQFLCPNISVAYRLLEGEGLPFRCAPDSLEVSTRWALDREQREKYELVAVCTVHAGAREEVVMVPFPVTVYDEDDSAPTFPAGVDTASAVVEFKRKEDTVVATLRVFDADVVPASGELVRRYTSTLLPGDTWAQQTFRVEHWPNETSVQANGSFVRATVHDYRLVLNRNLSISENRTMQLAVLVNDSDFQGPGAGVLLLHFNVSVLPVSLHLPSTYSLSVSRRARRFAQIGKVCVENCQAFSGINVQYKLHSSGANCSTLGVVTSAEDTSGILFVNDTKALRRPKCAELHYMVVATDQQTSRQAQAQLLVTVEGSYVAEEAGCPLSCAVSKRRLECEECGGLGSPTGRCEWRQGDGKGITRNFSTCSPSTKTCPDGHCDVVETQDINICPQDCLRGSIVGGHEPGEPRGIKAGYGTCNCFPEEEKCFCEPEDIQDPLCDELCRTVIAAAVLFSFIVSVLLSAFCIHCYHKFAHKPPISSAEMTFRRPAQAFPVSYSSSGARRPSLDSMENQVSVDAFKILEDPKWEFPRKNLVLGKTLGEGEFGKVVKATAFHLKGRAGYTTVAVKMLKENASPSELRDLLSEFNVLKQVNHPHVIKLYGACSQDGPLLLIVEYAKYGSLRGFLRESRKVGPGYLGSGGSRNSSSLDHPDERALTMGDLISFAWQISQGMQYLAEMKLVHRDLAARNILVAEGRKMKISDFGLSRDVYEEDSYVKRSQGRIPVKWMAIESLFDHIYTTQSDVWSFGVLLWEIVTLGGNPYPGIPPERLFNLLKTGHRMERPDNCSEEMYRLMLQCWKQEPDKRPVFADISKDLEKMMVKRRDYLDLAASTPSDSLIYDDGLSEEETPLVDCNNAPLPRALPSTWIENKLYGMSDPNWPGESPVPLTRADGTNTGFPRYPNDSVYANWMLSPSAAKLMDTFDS
T2 sequence (O60674 whole entry): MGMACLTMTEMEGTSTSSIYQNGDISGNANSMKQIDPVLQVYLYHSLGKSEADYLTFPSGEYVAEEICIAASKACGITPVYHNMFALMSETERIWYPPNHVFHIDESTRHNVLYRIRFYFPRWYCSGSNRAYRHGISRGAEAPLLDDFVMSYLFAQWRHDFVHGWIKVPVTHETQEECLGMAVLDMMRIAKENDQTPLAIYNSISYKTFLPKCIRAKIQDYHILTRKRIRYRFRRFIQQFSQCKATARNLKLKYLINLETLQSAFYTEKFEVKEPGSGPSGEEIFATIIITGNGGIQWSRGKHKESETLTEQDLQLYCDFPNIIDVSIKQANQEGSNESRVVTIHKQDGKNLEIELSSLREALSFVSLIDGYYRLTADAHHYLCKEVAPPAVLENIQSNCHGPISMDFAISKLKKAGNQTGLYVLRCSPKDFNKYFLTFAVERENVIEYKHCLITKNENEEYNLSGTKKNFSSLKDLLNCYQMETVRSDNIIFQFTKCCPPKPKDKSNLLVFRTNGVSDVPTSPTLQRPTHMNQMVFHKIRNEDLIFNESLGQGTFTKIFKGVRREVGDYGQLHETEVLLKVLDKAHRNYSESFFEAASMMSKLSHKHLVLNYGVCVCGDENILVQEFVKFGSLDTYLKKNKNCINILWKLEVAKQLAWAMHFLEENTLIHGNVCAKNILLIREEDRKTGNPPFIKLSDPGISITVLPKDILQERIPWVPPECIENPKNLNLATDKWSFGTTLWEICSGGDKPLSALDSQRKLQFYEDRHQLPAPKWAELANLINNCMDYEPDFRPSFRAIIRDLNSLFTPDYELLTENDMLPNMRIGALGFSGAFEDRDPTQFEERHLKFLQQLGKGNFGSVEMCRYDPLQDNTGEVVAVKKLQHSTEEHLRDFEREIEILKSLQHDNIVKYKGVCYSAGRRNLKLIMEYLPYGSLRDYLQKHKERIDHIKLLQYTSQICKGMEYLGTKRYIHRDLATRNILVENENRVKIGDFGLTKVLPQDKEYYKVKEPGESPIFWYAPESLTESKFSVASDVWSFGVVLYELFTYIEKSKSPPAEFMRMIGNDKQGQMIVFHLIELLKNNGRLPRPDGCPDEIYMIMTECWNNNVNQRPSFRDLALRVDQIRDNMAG
T8 sequence (P35968 20-1356): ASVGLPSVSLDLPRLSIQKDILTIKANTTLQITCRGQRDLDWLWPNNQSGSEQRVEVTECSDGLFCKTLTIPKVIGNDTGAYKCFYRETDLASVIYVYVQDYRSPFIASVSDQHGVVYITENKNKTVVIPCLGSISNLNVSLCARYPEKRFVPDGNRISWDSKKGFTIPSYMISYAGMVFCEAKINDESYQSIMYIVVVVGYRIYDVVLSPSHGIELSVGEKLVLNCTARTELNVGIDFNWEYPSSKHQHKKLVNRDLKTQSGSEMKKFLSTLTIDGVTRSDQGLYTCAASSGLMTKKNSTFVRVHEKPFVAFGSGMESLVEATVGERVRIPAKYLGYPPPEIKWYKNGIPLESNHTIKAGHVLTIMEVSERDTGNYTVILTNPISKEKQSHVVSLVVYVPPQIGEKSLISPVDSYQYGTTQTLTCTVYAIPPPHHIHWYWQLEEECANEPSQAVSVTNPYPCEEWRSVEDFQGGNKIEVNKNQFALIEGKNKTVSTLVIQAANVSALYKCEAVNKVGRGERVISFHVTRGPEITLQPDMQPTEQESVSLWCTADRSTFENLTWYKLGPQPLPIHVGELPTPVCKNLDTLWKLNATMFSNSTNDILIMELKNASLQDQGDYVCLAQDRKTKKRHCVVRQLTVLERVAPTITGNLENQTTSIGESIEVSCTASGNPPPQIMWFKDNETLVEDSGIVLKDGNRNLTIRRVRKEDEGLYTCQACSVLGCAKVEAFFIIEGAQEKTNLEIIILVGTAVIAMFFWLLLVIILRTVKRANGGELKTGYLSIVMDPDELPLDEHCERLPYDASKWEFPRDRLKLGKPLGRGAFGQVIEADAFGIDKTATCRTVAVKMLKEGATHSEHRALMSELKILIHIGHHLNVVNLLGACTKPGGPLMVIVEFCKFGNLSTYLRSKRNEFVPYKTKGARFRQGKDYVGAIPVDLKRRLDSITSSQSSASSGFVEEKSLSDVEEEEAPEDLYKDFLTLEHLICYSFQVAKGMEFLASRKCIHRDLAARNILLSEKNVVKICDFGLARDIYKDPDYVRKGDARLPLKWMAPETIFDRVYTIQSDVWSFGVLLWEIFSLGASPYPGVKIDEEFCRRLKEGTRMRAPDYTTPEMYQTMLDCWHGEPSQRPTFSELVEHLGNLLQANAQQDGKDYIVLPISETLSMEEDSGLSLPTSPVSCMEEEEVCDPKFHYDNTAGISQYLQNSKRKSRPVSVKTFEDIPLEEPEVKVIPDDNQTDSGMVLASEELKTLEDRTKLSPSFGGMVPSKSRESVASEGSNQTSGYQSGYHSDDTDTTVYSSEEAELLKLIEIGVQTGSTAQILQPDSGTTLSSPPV

Row | Structure (SMILES) | IC50 [1] [µM] | activity at 1 µM [1] [%] | IC50 [2] [µM] | IC50 [3] [µM] | activity at 1 µM [4] [%] | IC50 [5] [µM] | IC50 [6] [µM] | activity at 1 µM [6] [%] | IC50 [7] [µM] | IC50 [8] [µM] | IC50 [9] [µM] | IC50 [10] [µM] | IC50 [11] [µM] | IC50 [12] [µM] | IC50 [13] [µM] | IC50 [4] [µM]
1 | C=CC(=O)Nc1cc2cc(c1)Nc1nccc(n1)-c1cccc(c1)COC/C=C/COC2 [XVI-6] | 0.01 | -1 | 0.016 | 0.106 | 17 | 0.202 | 0.348 | 16 | 0.064 | 0.061 | 0.002 | – | – | – | – | –
2 | O=C(O)/C=C/C(=O)Nc1cc2cc(c1)Nc1nccc(n1)-c1cccc(c1)COC/C=C/COC2 [XVI-9] | 0.005 | 1 | 0.007 | 0.019 | – | – | – | 62 | – | – | 0.003 | – | – | – | – | –
3 | O=C(/C=C/CN1CCOCC1)Nc1cc2cc(c1)Nc1nccc(n1)-c1cccc(c1)COC/C=C/COC2 [XVI-3] | 0.005 | 1 | 0.006 | 0.044 | 8 | 0.145 | 0.04 | 7 | 0.021 | 0.021 | 0.002 | 1.58 | 1.47 | 2.7 | 0.866 | –
4 | O=C(/C=C/C(=O)N1CCNCC1)Nc1cc2cc(c1)Nc1nccc(n1)-c1cccc(c1)COC/C=C/COC2 [XVI-11] | 0.006 | 1 | 0.038 | 0.167 | -1 | – | – | 18 | – | 0.189 | 0.021 | – | – | – | – | 0.034
5 | CN(C)C/C=C/C(=O)Nc1cc2cc(c1)Nc1nccc(n1)-c1cccc(c1)COC/C=C/CN(C)C2 [XVI-26] | 0.017 | 0 | 0.328 | 0.136 | 32 | 0.594 | 1.25 | 50 | 0.164 | 0.329 | 0.028 | – | – | – | – | –
6 | O=C(/C=C/CN1CCCC1)Nc1cc2cc(c1)Nc1nccc(n1)-c1cccc(c1)COC/C=C/COC2 [XVI-1] | 0.003 | -1 | 0.009 | 0.069 | -1 | 0.066 | 0.029 | 2 | 0.01 | 0.017 | 0.001 | 0.706 | 0.143 | 0.614 | 0.326 | –
